From PMC6949113, “Preclinical evaluation of AT-527, a novel guanosine nucleotide prodrug with potent, pan-genotypic activity against hepatitis C virus” (PLoS ONE, 2020)

Legend:
human DNA polymerase γ = molecular target: T1, human DNA polymerase γ (Homo sapiens, UniProt P54098); test: Human DNA polymerase inhibition assay, γ; format: biochemical
T1 construct: purchased CHIMERx (Madison, WI)
Description: The polymerases were purchased from CHIMERx (Madison, WI). Inhibition of DNA polymerase α activity was assayed in microtiter plates in 20 mM Tris-HCl, pH 8, 5 mM Mg acetate, 0.3 mg/mL BSA, 1mM DTT, 0.1 mM spermine, 0.05 mM dCTP, dTTP and dATP, 10 μCi ^32P-α-dGTP (800 Ci/mmol), 20 μg activated calf thymus DNA and the test compound at indicated concentrations. The DNA polymerase β and γ reaction mixture contained 50 mM Tris-HCl, pH 8.7, KCl (10 mM for β and 100 mM for γ), 10 mM MgCl2, 0.4 mg/mL BSA, 1mM DTT, 15% glycerol, 0.05 mM dCTP, dTTP and dATP, 10 μCi ^32P-α-dGTP (800 Ci/mmol), 20 μg activated calf thymus DNA and test compound at the indicated concentrations. For each assay, samples were run in triplicate, and positive controls were included. The enzyme reactions were allowed to proceed for 30 min at 37 °C followed by transfer onto glass-fiber filter plates and subsequent precipitation with 10% trichloroacetic acid (TCA). Plates were washed five times with 5% TCA, once with 95% ethanol and dried. The radioactive content of each filter was measured and used to determine the extent of inhibition of each polymerase.

[1] = Rat PK study, liver and heart tissue levels; format: in vivo, Sprague-Dawley rat; settings: 4 h after oral AT-527 500 mg/kg
Description: Rat pharmacokinetic (PK) study. Sprague-Dawley rats were obtained from SLAC Laboratory Animal Co., Ltd. (Shanghai, China), group housed (during the 3-day acclimation period) or individually housed (during the study) and provided ad libitum access to purified (reverse osmosis; RO) water and food except when fasted overnight prior to administration of test article, 4 h after which access to food was restored. Two groups of five rats (single sex/group) were administered a single dose of 500 mg/kg AT-527, suspended in 0.5% CMC-Na and 0.5% Tween 80, via nasogastric gavage followed by a vehicle flush of 3 mL (about 3 times the nasogastric tube volume). This dosage was selected because it was close to the anticipated highest dose to be used in a repeated oral dose toxicity study and would permit accurate assessments of plasma concentrations of metabolites. Blood samples (200 μL) were collected via the saphenous vein using manual restraint at 0.25, 0.5, 1, 2, 4, 6, 8, 10, 12, 24, 48 and 72 h post dose from three animals per sex, and at 0.25, 0.5, 1, 2 and 4 h post dose from two animals per sex. Blood samples were transferred to tubes containing 4 μL 0.5 M dipotassium ethylenediaminetetraacetic acid (K2EDTA) and 10 μL dichlorvos (2 mg/mL) to prevent coagulation and inhibit esterase activity, respectively, mixed and centrifuged (3000 x g, 10 min, 2–8°C) to prepare plasma samples which were quickly frozen on dry ice and stored at ≤ -80°C until LC-MS/MS analysis. […] After the 4-h blood collection, two rats per group were euthanized by CO2 inhalation followed by rapid excision and snap-freezing of the heart and liver in liquid nitrogen. The frozen organs were broken into small pieces and approximately 0.5 g of each tissue was homogenized in 5 volumes (w/v) pre-chilled homogenization solution (30% 268 mM EDTA adjusted to pH 7.2–7.4 with potassium hydroxide in MeOH) in a dry ice-ethanol bath. […]

[2] = Rat pharmacokinetic study, plasma; format: in vivo, Sprague-Dawley rat; settings: both sexes, Sprague-Dawley, rat, in vivo, po, 500 mg/kg

T1 sequence (P54098 whole entry): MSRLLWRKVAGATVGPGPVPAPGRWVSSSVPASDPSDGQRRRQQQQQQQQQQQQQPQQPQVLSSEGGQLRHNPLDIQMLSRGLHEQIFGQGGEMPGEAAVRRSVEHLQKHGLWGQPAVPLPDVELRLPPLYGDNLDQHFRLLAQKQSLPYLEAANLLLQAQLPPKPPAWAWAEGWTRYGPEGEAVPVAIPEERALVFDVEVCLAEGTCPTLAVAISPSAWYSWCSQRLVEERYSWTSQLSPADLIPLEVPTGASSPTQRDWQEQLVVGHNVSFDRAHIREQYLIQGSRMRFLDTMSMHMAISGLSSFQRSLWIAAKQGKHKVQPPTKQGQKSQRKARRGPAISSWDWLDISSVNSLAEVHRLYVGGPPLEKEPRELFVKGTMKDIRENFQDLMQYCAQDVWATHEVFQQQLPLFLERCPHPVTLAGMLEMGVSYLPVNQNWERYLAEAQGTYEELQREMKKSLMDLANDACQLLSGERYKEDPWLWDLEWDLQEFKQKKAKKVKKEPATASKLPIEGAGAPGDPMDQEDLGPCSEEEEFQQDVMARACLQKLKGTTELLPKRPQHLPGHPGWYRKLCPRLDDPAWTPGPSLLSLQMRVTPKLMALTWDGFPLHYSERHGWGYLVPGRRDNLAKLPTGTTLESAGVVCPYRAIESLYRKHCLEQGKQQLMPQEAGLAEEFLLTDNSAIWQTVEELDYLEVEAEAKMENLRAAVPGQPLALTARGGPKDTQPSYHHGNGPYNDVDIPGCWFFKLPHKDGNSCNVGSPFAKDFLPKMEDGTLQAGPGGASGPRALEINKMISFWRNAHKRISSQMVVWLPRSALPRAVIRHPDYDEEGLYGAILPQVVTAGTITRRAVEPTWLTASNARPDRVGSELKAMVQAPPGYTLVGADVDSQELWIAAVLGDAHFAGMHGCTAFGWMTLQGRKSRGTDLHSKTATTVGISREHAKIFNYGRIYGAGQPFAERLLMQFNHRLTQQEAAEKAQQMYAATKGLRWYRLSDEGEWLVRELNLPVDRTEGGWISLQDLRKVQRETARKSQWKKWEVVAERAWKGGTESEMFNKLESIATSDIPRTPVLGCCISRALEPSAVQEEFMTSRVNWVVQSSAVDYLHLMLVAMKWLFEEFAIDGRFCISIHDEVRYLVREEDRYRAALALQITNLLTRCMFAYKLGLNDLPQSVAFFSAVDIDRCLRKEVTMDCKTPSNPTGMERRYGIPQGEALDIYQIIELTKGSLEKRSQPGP

SMILES	IC50 (human DNA polymerase γ) [µM]	fold higher in liver than in heart [1] [fold]	mean heart concentration [1] [pmol/g]	mean liver concentration [1] [pmol/g]	AUC(0-t) [2] [µM·h]	Cmax [2] [nM]	MRT last [2] [h]	Tmax [2] [h]
C[C@@]1(F)[C@H](O)[C@@H](COP(=O)(O)OP(=O)(O)OP(=O)(O)O)O[C@H]1n1cnc2c(=O)[nH]c(N)nc21 [AT-9010]	> 100	87	80 ± 41	6974 ± 2844				
C[C@@]1(F)[C@H](O)[C@@H](CO)O[C@H]1n1cnc2c(=O)[nH]c(N)nc21 [AT-273]					40.3 ± 10.9	2500 ± 520	17.5 ± 2.1	6.34 ± 0.58
